{"source": "patent US7713923B2", "about": "“Self-assembling peptides incorporating modifications and methods of use thereof” (Massachusetts Institute of Technology, priority 2003, dated 2010)", "key": {"[1]": {"assay": "Circular dichroism (secondary structure)", "type": "physicochemical", "conditions": "25 μM peptide in water, room temperature, 195-250 nm", "protocol": "Circular dichroism (DC). CD spectra were gathered on an Aviv model 202 spectropolarimeter. Samples were prepared by diluting stock peptide solutions in water (0.5%) to a working concentration of 25 μM. Samples were analysed at room temperature in a quartz cuvette with a path length of 0.3 cm and in the wavelength range 195-250 nm.\nCircular dichroism. CD spectra were obtained for each peptide sequence to assess its secondary structure. The secondary structure identifies ordered structures within a polypeptide such as α-helices and β-sheets. […] (Havel, 1996)."}, "[2]": {"tested_on": "human aortic endothelial cells (HAEC)", "assay": "HAEC monolayer formation on peptide scaffolds", "type": "cell-based", "design": "key to HAEC monolayer formation, peptide content 100% / HAEC monolayer formation, Blending (9:1): +: Score for optimal monolayer formation and cell survival; −: Score for poor or none monolayer formation and cell survival", "conditions": "for HAEC monolayer formation, Blending (9:1): RAD16-I: peptide sequence at a ratio 9:1 (v/v); for HAEC monolayer formation, peptide content 100%: scaffold of 100% peptide, 0.5% (w/v); for HAEC monolayer formation, peptide blends: 9:1 RAD16-I:modified peptide, seeded subconfluent (~30%)", "protocol": "Endothelial cell culture system. Peptide scaffolds (0.5% w/v) were prepared at 100% peptide sequence for RAD16-I or blended with RAD16-I at a radio of 9:1 (RAD16-I: peptide sequence, on a volume/volume basis) for the three other cases (YIG, RYV, and TAG). Each solution was filtered (0.2 μm, Acrodysc filters, 4192, PALL, MI), loaded (30 μl) on top of a cell culture chamber insert (10 mm diameter, 136935, Nalge Nunc International, IL), and allowed to form a layer (average thickness=600 μm). Phosphate Buffer Saline (PBS) (600 μl) was added at the bottom of the well to induce hydrogel formation, and the system was incubated at room temperature for 30 min. PBS was replaced with culture medium, which was then replaced with fresh medium. The scaffolds were incubated for 1 hour with endothelial cell growth media (EGM-2, Cambrex, MD) in a cell culture incubator at 37° C. with 5% CO2.\n(§1) Meanwhile, human aortic endothelial cells (HAEC) (CC-2535, Cambrex, MD) that had been maintained under standard culture conditions (passage 5-6) were harvested at 80% confluence using trypsin and loaded on top of the preformed peptide scaffolds at a cell density of 8×10^4 cells/cm^2 and cultured in the cell culture incubator at 37° C. with 5% CO2. Cell attachment assays were performed one hour after the initial cell loading. To perform the assays, the covering media was removed, and unattached cells were counted on a hematocytometer. Cell counting was performed by mechanically disrupting the scaffold containing cells by pipetting up and down and then counting cells on a hematocytometer after performing Trypan blue (T 9906, Sigma, MO) exclusion assay staining to assess cell viability. In some experiments, for comparison, EC were cultured on inserts coated with Matrigel or collagen (1.5 mg/ml, i.e. 0.15%) according to standard protocols.\nIn a first experiment, we tested the ability of HAEC to attach and form a monolayer when seeded on various peptide scaffolds generated by self-assembly of the peptides following addition of PBS to a 0.5%(w/v) solution of the peptide in water. […] HAEC cultured in the presence of scaffolds generated from peptides incorporating the other biologically active peptide motifs either died or formed isolated clusters (FIGS. 9A-9G).\nWe therefore decided to blend the peptides incorporating biologically active motifs with the prototypic RAD16-I sequence in order to reduce the overall concentration of the biologically active motif presented to cells. We selected a volume/volume ratio of 9:1 (RAD16-I:modified peptide sequence comprising biologically active peptide motif, where peptides were dissolved at equal concentrations on a w/w basis) and generated peptide scaffolds from solutions in which the unmodified and modified peptides were present in this ratio."}, "[3]": {"tested_on": "human aortic endothelial cells (HAEC)", "assay": "HAEC attachment assay on peptide scaffolds", "type": "cell-based", "conditions": "after one hour; modified peptides as 9:1 blends with RAD16-I", "protocol": "as §1"}, "[4]": {"tested_on": "human aortic endothelial cells (HAEC)", "assay": "NO release determination (Griess method)", "type": "cell-based", "conditions": "nitrite in culture supernatant; RAD16-I 100%, others 9:1 blend", "protocol": "NO release determination. Nitric oxide (NO) release was estimated by measuring nitrites (NOx) by the Griess method. Briefly, the media was replaced after the third day of culture by new media without fetal bovine serum (FBS) or ascorbic acid. The next day, the media was used to analyze NO release using a commercially available kit (482702, Calbiochem, CA) following the manufacturer instructions. Each condition was tested in triplicate."}, "chondrocytes": {"tested_on": "chondrocytes", "conditions": "encapsulated cells; cited from earlier work"}, "[5]": {"tested_on": "PC12 cells, endothelial cells, heparin", "conditions": "cited from earlier work"}}}
{"compound": "CC(=O)N1CCC[C@H]1C(=O)N[C@@H](CC(=O)O)C(=O)N[C@@H](CO)C(=O)NCC(=O)N[C@@H](CCCNC(=N)N)C(=O)NCC(=O)NCC(=O)N[C@@H](CCCNC(=N)N)C(=O)N[C@@H](C)C(=O)N[C@@H](CC(=O)O)C(=O)N[C@@H](C)C(=O)N[C@@H](CCCNC(=N)N)C(=O)N[C@@H](C)C(=O)N[C@@H](CC(=O)O)C(=O)N[C@@H](C)C(=O)N[C@@H](CCCNC(=N)N)C(=O)N[C@@H](C)C(=O)N[C@@H](CC(=O)O)C(=O)N[C@@H](C)C(=O)N[C@@H](CCCNC(=N)N)C(=O)N[C@@H](C)C(=O)N[C@@H](CC(=O)O)C(=O)N[C@@H](C)C(N)=O", "note": "[PDS, AcN-PDSGR-GG-(RADA)4-CONH2]", "values": [{"measurement": "Secondary structure (CD)", "setting": "[1]", "result": "β-sheet"}, {"measurement": "HAEC monolayer formation, Blending (9:1)", "setting": "[2]", "result": "−"}, {"measurement": "HAEC monolayer formation, peptide content 100%", "setting": "[2]", "result": "−"}]}
{"compound": "CC[C@H](C)[C@H](NC(=O)[C@H](Cc1ccc(O)cc1)NC(C)=O)C(=O)NCC(=O)N[C@@H](CO)C(=O)N[C@@H](CCCNC(=N)N)C(=O)NCC(=O)NCC(=O)N[C@@H](CCCNC(=N)N)C(=O)N[C@@H](C)C(=O)N[C@@H](CC(=O)O)C(=O)N[C@@H](C)C(=O)N[C@@H](CCCNC(=N)N)C(=O)N[C@@H](C)C(=O)N[C@@H](CC(=O)O)C(=O)N[C@@H](C)C(=O)N[C@@H](CCCNC(=N)N)C(=O)N[C@@H](C)C(=O)N[C@@H](CC(=O)O)C(=O)N[C@@H](C)C(=O)N[C@@H](CCCNC(=N)N)C(=O)N[C@@H](C)C(=O)N[C@@H](CC(=O)O)C(=O)N[C@@H](C)C(N)=O", "note": "[YIG, AcN-YIGSR-GG-(RADA)4-CONH2]", "values": [{"measurement": "Secondary structure (CD)", "setting": "[1]", "result": "β-sheet"}, {"measurement": "HAEC monolayer formation, scaffold of 100% peptide", "setting": "[2]; 0.5% (w/v) peptide, no blending", "result": "able to support the formation of a monolayer"}, {"measurement": "HAEC monolayer formation, peptide blends", "setting": "[2]", "result": "readily supported monolayer formation"}, {"measurement": "HAEC monolayer formation, Blending (9:1)", "setting": "[2]", "result": "+"}, {"measurement": "HAEC monolayer formation, peptide content 100%", "setting": "[2]", "result": "+"}, {"measurement": "HAEC attachment to the surface", "setting": "[3]", "result": "~100", "unit": "%"}, {"measurement": "nitric oxide (NO) release by HAEC", "setting": "[4]", "result": "promote NO release"}]}
{"compound": "Ac-KAFDITYVRLKFGGRADARADARADARADA-NH2 [KAF, AcN-KAFDITYVRLKF-GG-(RADA)4-CONH2]", "values": [{"measurement": "Secondary structure (CD)", "setting": "[1]", "result": "random coil"}, {"measurement": "HAEC monolayer formation, Blending (9:1)", "setting": "[2]", "result": "−"}, {"measurement": "HAEC monolayer formation, peptide content 100%", "setting": "[2]", "result": "−"}]}
{"compound": "Ac-RYVVLPRGGRADARADARADARADA-NH2 [RYV, AcN-RYVVLPR-GG-(RADA)4-CONH2]", "values": [{"measurement": "Secondary structure (CD)", "setting": "[1]", "result": "β-sheet"}, {"measurement": "HAEC monolayer formation, peptide blends", "setting": "[2]", "result": "readily supported monolayer formation"}, {"measurement": "HAEC monolayer formation, Blending (9:1)", "setting": "[2]", "result": "+"}, {"measurement": "HAEC monolayer formation, peptide content 100%", "setting": "[2]", "result": "−"}, {"measurement": "HAEC attachment to the surface", "setting": "[3]", "result": "~100", "unit": "%"}, {"measurement": "nitric oxide (NO) release by HAEC", "setting": "[4]", "result": "inhibits NO release"}]}
{"compound": "Ac-TAGSCLRKFSTMGGRADARADARADARADA-NH2 [TAG, AcN-TAGSCLRKFSTM-GG-(RADA)4-CONH2]", "values": [{"measurement": "Secondary structure (CD)", "setting": "[1]", "result": "β-sheet"}, {"measurement": "HAEC monolayer formation, peptide blends", "setting": "[2]", "result": "readily supported monolayer formation"}, {"measurement": "HAEC monolayer formation, Blending (9:1)", "setting": "[2]", "result": "+"}, {"measurement": "HAEC monolayer formation, peptide content 100%", "setting": "[2]", "result": "−"}, {"measurement": "HAEC attachment to the surface", "setting": "[3]", "result": "~100", "unit": "%"}, {"measurement": "nitric oxide (NO) release by HAEC", "setting": "[4]", "result": "promote NO release"}]}
{"compound": "AcN-KLDLKLDLKLDL-CONH2 (Ac-KLDLKLDLKLDL-NH2) [KLD12]", "values": [{"measurement": "chondrocyte phenotype in hydrogel", "setting": "chondrocytes", "result": "retained their morphology and developed a cartilage-like, mechanically functional ECM rich in proteoglycans and type-II collagen"}]}
{"compound": "CSRARKQAASIKVAVSADR", "values": [{"measurement": "Biological activity", "setting": "[5]", "result": "vessel formation"}]}
{"compound": "KAFDITYVRLKF", "values": [{"measurement": "Biological activity", "setting": "[5]", "result": "neurite outgrowth"}]}
{"compound": "PDGSR", "values": [{"measurement": "Biological activity", "setting": "[5]", "result": "Cell adhesion"}]}
